Experimental data reported in ChEMBL document CHEMBL4342420, “Discovery of AM-6494: A Potent and Orally Efficacious β-Site Amyloid Precursor Protein Cleaving Enzyme 1 (BACE1) Inhibitor with in Vivo Selectivity over BACE2” (J Med Chem, 2020).

Key:
[1] = Stability in rat liver microsomes at 1 uM measured after 30 mins in presence of NADPH; format: ADME, Microsome; conditions: read-out: Stability
[2] = Stability in human liver microsomes at 1 uM measured after 30 mins in presence of NADPH; format: ADME, Microsome; conditions: read-out: Stability
[3] = Clearance in rat at 1 mg/kg, iv; format: ADME, organism-based; conditions: in vivo
[4] = Oral bioavailability in Beagle dog at 10 mg/kg; format: ADME, organism-based, Canis lupus familiaris; conditions: in vivo
[5] = Half life in rat at 1 mg/kg, iv; format: ADME, organism-based; conditions: in vivo
[6] = Free plasma concentration in depilated mouse at 100 mg/kg, po administered once daily for 13 days measured 24 hrs post-last dose; format: ADME, organism-based; conditions: in vivo
[7] = Volume of distribution at steady state in Beagle dog at 1 mg/kg, iv; format: ADME, organism-based, Canis lupus familiaris; conditions: in vivo, read-out: Vdss
[8] = Volume of distribution at steady state in rat at 1 mg/kg, iv; format: ADME, organism-based; conditions: in vivo, read-out: Vdss
[9] = Half life in Beagle dog at 1 mg/kg, iv; format: ADME, organism-based, Canis lupus familiaris; conditions: in vivo
[10] = AUCt in rat at 3 mg/kg, po; format: ADME, organism-based; conditions: in vivo
[11] = Half life in monkey at 1 mg/kg, iv; format: ADME, organism-based, Macaca mulatta; conditions: rhesus monkey, in vivo
[12] = Volume of distribution at steady state in monkey at 1 mg/kg, iv; format: ADME, organism-based, Macaca mulatta; conditions: rhesus monkey, in vivo, read-out: Vdss
[13] = Oral bioavailability in cynomolgus monkey at 3 mg/kg; format: ADME, organism-based, Macaca fascicularis; conditions: in vivo
[14] = Clearance in monkey at 1 mg/kg, iv; format: ADME, organism-based, Macaca mulatta; conditions: rhesus monkey, in vivo
[15] = Stability in dog liver microsomes at 0.5 uM measured after 30 mins in presence of NADPH; format: ADME, Canis lupus familiaris, Microsome; conditions: read-out: Stability
[16] = AUCt in Beagle dog at 10 mg/kg, po; format: ADME, organism-based, Canis lupus familiaris; conditions: in vivo
[17] = AUCt in cynomolgus monkey at 3 mg/kg, po; format: ADME, organism-based, Macaca fascicularis; conditions: in vivo
[18] = Oral bioavailability in rat at 3 mg/kg; format: ADME, organism-based; conditions: in vivo
[19] = Clearance in Beagle dog at 1 mg/kg, iv; format: ADME, organism-based, Canis lupus familiaris; conditions: in vivo
[20] = Stability in monkey liver microsomes at 0.5 uM measured after 30 mins in presence of NADPH; format: ADME, Macaca mulatta, Microsome; conditions: rhesus monkey, read-out: Stability
[21] = Free plasma concentration in depilated mouse at 30 mg/kg, po administered once daily for 13 days measured 24 hrs post-last dose; format: ADME, organism-based; conditions: in vivo
[22] = Free plasma concentration in depilated mouse at 10 mg/kg, po administered once daily for 13 days measured 24 hrs post-last dose; format: ADME, organism-based; conditions: in vivo
[23] = Free plasma concentration in depilated mouse at 120 mg/kg, po administered once daily for 13 days measured 24 hrs post-last dose; format: ADME, organism-based; conditions: in vivo

C#CCOc1cnc(C(=O)Nc2cc(F)c(F)c([C@@]3(C)N=C(N)S[C@@]4(CF)C[C@H]43)c2)cn1
microsomal CLint at 1 µM [1]: 87 µL/min/mg
microsomal CLint at 1 µM [2]: 76 µL/min/mg

C[C@]1(c2cc(NC(=O)c3ccc(Cl)cn3)cc(F)c2F)N=C(N)S[C@@]2(C(N)=O)C[C@H]21
microsomal CLint at 1 µM [1]: < 14 µL/min/mg
microsomal CLint at 1 µM [2]: < 14 µL/min/mg

COC[C@]12C[C@H]1[C@@](C)(c1cc(NC(=O)c3cnc(OCCC(F)(F)F)cn3)cc(F)c1F)N=C(N)S2
microsomal CLint at 1 µM [1]: 156 µL/min/mg
microsomal CLint at 1 µM [2]: 29 µL/min/mg

C#CCOc1cnc(C(=O)Nc2cc(F)c(F)c([C@@]3(C)N=C(N)S[C@@]4(COC)C[C@H]43)c2)cn1
clearance [3]: 21.7 mL/min/kg
bioavailability [4]: 100%
half-life [5]: 1.5 h
Cp(f) [6]: 32 nM
Vd [7]: 3.2 L/kg
Vd [8]: 1.7 L/kg
half-life [9]: 2 h
AUCt [10]: 2.4 µM·h
microsomal CLint at 1 µM [1]: 84 µL/min/mg
half-life [11]: 8.3 h
Vd [12]: 17 L/kg
bioavailability [13]: 28%
clearance [14]: 35 mL/min/kg
microsomal CLint at 0.5 µM [15]: 62 µL/min/mg
AUCt [16]: 22 µM·h
AUCt [17]: 2.3 µM·h
microsomal CLint at 1 µM [2]: 41 µL/min/mg
bioavailability [18]: 48%
clearance [19]: 15 mL/min/kg
microsomal CLint at 0.5 µM [20]: 146 µL/min/mg

NC1=N[C@@]2(CO1)c1cc(-c3cccnc3F)ccc1Oc1c2cc(C2=CCCOC2)nc1F
Cp(f) [21]: 88 nM
Cp(f) [22]: 38 nM
Cp(f) [23]: 328 nM
